In data set [1] the test system is rats with hemorrhagic stroke. Kind of data set: Hemorrhagic stroke: reproduction of passive avoidance response. As to conditions: 20 mg/kg; for Increase of the share of rats with HS that retained the memory trace: PAR reproduction on Day 14, versus 8% of untreated rats with stroke. In kind it is in vivo. The text has this:
(§1) White nondescript male rats with body weight 200-250 g, which lived in vivarium and had feed (standard palletized feed) and water ad libitum, with natural alternation of day and night, were used in the experiments. Hemorrhagic stroke (local cerebral hemorrhage) was simulated according to method by A. N. Makarenko et al. (Method of local hemorrhage simulation I various structures of the brain in experimental animals. Journal Visshei Nervnoy Deyatelnosti—Journal of Higher Nervous Activities, 2002, v. 52, No 6, p. 765-768). In nembutal-anesthetized rats (40 mg/kg, i.m.) destruction of the brain tissue in capsule interna area was made with the use of special device (mandarin-knife) followed by application of blood (0.02-0.03 ml) taken from under the rat's tongue to the damaged area (within 2-3 minutes). False-operated animals underwent scalping and craniotomy. The animals were divided into 5 groups: intact rats, false-operated rats, animals with hemorrhagic stroke received nooglutyl at 20 mg/kg, and animals with hemorrhagic stroke received Compound I at 20 mg/kg. Effects were recorded within 24 hours and 14 days after the surgery. Learning ability and memory of the rats was examined in the model of passive avoidance response (PAR, Passive Avoidance supplied by Lafayette Instrument Co., USA). To determine neurological deficit in the animals Stroke-index McGrow scale modified by I. V. Gannushkina (Functional architectonics of the brain, Moscow, Medicina, 1977, 224 p.) was used. The severity of the condition was determined by the sum of the points. The number of rats with mild symptoms up to 2.5 points of Stroke-index scale (apathy, weakness of the extremities, unilateral semiptosis, tremor, circus movements) and severe manifestations of neurological disorders (3 to 10 points)—paresis of the extremities, palsy of low extremities, lateral position. The animals received single dose of nooglutyl and Compound I at the same dose 20 mg/kg intraperitoneally within 3-3.5 hours after the surgery. Controlled animals were treated with saline. At onset of the experiment each group comprised 15-20 animals. Mortality of the rats was recorded throughout the observation period (14 days). Statistical analysis was made using parametrical and non-parametrical methods and Biostat software. Nimodipin administered at 01.mg/kg according to above scheme was considered as a standard.

In data set [2] the test system is rats with induced ischemia. Nature of the data set: Passive avoidance response in animals with induced ischemia. The following applies: 24 hours after learning, 180 seconds test. In kind it is in vivo. The source says: In separate series of the experiments the animals learned in the test of passive avoidance response (PAR), which was formed in apparatus supplied by Lafayette Instrument Co. (USA) comprising brightly illuminated hanging platform connected to dark chamber with electrified floor. In the course of learning the rat entered dark chamber due to congenital hole reflex, and received pain electric stimulus.
These effects of nooglutyl and Compound Ia were significant compared with control at p<0.05.

Data set [3] relates to rats with hemorrhagic stroke. Nature of the data set: Intracerebral posttraumatic hematoma (hemorrhagic stroke): survival. The data set is classed as in vivo. As to conditions: 20 mg/kg single dose intraperitoneally 3-3.5 hours after surgery.
Source text: as §1

Data set [4] has as its system mice exposed to hypoxia in hermovolume. Kind of data set: Hypoxia with hypercapnia in hermovolume. The data set is classed as in vivo. The procedure: White nondescript male mice with body weight 22-28 g were used in the experiments. Each dose level was studied in 10 animals. Control animals received equivalent volume of distilled water. Nooglutyl was used as reference agent. Study compounds were administered intraperitoneally 40 minutes before the experiment.
Acute hypobaric hypoxia was simulated in flow-exhaust chamber. Pressure was measured with altimeter, and elevation speed with variometer. The animals were “elevated” at the speed 20 m/s to the stage at 11000 m. The exposure lasted 10 minutes. Then the animals were mover down to the baseline level for 5 minutes. Hypoxia with hypercapnia in hermovolume was created by placement of the animal into 200 ml hermetically sealed glass vessels. Life period of the animals under hypoxic conditions was recorded. Each group comprised 10 animals.

Another data set in a line: in vivo. As to conditions: male, white nondescript (outbred), mouse, ip. How it is done:
The study of acute daily toxicity of Compound I was carried out on white nondescript male mice with body weight 25-28 g, which lived in habitual conditions in vivarium and received feed and water ad libitum. Single dose of Compound I was administered intraperitoneally. The animals were under observation for 2 days after the dosing. The dose levels of Compound I used in the toxicity study were as follows: 800 mg/kg, 1000 mg/kg, 1200 mg/kg, 1500 mg/kg, 1600 mg/kg. Compound I was dissolved in distilled water and administered in 0, 1 ml per 10 g of the body weight of the animal when the doses 800 mg/kg and 1000 mg/kg, and in 0.2 ml per 10 g of the body weight when the doses 1200 mg/kg, 1500 mg/kg, 1600 mg/kg were used. Control animals received distilled water in the volume 0.2 ml per 10 g of the body weight.
Each dose group comprised 10 animals.

The mark [5] stands for this setting: PAR reproduction within 24 hours.
Where [6] appears, read: PAR reproduction within 14 days.
The mark [7] stands for this setting: 30 mg/kg intraperitoneally 40 minutes before the experiment.
[8] abbreviates: 60 mg/kg intraperitoneally 40 minutes before the experiment.
The mark [9] stands for this setting: 120 mg/kg intraperitoneally 40 minutes before the experiment.

The structures appear in SMILES notation. Marks after values point to notes of the source that are not given here.

As to `O=C([O-])CC[C@H](NC(=O)c1cncc(O)c1)C(=O)[O-].[Ca+2]` [Compound I, Calcium N-(5-hydroxynicotinoyl)-L-glutamate], the “Increase of the share of rats with HS that retained the memory trace” value in data set [1] came to 6.5 fold. Moreover, in data set [1] (setting [5]), the “Latent period of entry to dark chamber (c)” value (from here on “Latent period of entry … (c)”) worked out at 128.1 ± 17.6 c and the “Number of animals, which did not enter dark chamber (%)” value is 63%. Further, in data set [1] (setting [6]), the “Latent period of entry … (c)” value amounted to 98.9 ± 21.3 c and the “Number of animals, which did not enter dark chamber (%)” value is listed as 52$$ %. The “Latent period of entry to dark dangerous chamber” value in data set [2] worked out at 62.3 ± 7.2 s. In data set [3], the “Number of animals which died in relation to total number of operated animals, absolute, Day 1 after surgery” value is on record as 1 of 20; the “Number of animals which died in relation to total number of operated animals, absolute, Day 3 after surgery” value was 2 of 20; the “Number of animals which died in relation to total number of operated animals, absolute, Day 7 after surgery” value is listed as 2 of 20; the “Number of animals which died in relation to total number of operated animals, absolute, Day 14 after surgery” value was 2 of 20. Further, in data set [3], the “Number of animals which died, %, Day 1 after surgery” value is on record as 5%; the “Number of animals which died, %, Day 3 after surgery” value is listed as 10## %; the “Number of animals which died, %, Day 7 after surgery” value was 10## %; the “Number of animals which died, %, Day 14 after surgery” value (from here on “Number … %, Day 14 after surgery”) is on record as 10%. In addition, the “Number … %, Day 14 after surgery” value in data set [3] (listed as compound I) is recorded as 10## %. For the same molecule, the “Life interval of mice (minutes) exposed to hypoxia in hermovolume” value (“Life interval of mice (minutes) exposed” for short) in data set [4] (setting [7]) stood at 16.2 ± 0.31 min. Besides, in data set [4] (setting [8]), the “Life interval of mice (minutes) exposed” value was found to be 17.8 ± 0.41 min. The “Life interval of mice (minutes) exposed” value in data set [4] (setting [9]) came out at 18.1 ± 0.48 min. Moreover, the LD50 – broadly, the dose at which mortality reaches 50% – at 2 days in the data set “in vivo” turned out to be 1150 mg/kg.

On to `O=C(O)CC[C@H](NC(=O)c1cncc(O)c1)C(=O)O` [Nooglutyl, N-(5-hydroxynicotinoyl)-L-glutamic acid, reference compound], for which the “Increase of the share of rats with HS that retained the memory trace” value in data set [1] is given as 5 fold. Besides, in data set [1] (setting [5]), the “Latent period of entry … (c)” value is given as 130.4 ± 20.1 c and the “Number of animals, which did not enter dark chamber (%)” value was found to be 64%. Moreover, in data set [1] (setting [6]), the “Latent period of entry … (c)” value is recorded as 92.2 ± 18.2 c and the “Number of animals, which did not enter dark chamber (%)” value is listed as 40$ %. Besides, the “Latent period of entry to dark dangerous chamber” value in data set [2] was found to be 56.2 ± 8.3 s. For the same molecule, in data set [3], the “Number of animals which died in relation to total number of operated animals, absolute, Day 1 after surgery” value is 3 of 20; the “Number of animals which died in relation to total number of operated animals, absolute, Day 3 after surgery” value is 4 of 20; the “Number of animals which died in relation to total number of operated animals, absolute, Day 7 after surgery” value is reported as 4 of 20; the “Number of animals which died in relation to total number of operated animals, absolute, Day 14 after surgery” value was 4 of 20. Also, in data set [3], the “Number of animals which died, %, Day 1 after surgery” value turned out to be 15%; the “Number of animals which died, %, Day 3 after surgery” value is recorded as 20# %; the “Number of animals which died, %, Day 7 after surgery” value is 20# %; the “Number … %, Day 14 after surgery” value stood at 20%. The “Number … %, Day 14 after surgery” value in data set [3] (listed as nooglutyl) is given as 20## %. In addition, the “Life interval of mice (minutes) exposed” value in data set [4] (setting [7]) came out at 13.9 ± 0.42 min. The “Life interval of mice (minutes) exposed” value in data set [4] (setting [8]) was found to be 15.2 ± 0.39 min. The “Life interval of mice (minutes) exposed” value in data set [4] (setting [9]) was 16.4 ± 0.53 min. Moreover, the 50% lethal dose (LD50) at 2 days in “in vivo” was 1200 mg/kg.

These data come from patent US8030493B2, “Monovalent and divalent salts of N-(5-hydroxynicotinoil) -L-glutamic acid exhibiting psychotropic (antidepressant and anxiolytic), neuroprotective, geroprotective and cerebroprotective action” (Obschestvo S Ogranichennoy Otvetstvennostyu “Natsionalnaya …, priority 2006, dated 2011).
